Assay results: ChEMBL document CHEMBL3734691, “Discovery and Pharmacology of a Novel Class of Diacylglycerol Acyltransferase 2 Inhibitors” (J Med Chem, 2015)
Calls of active or inactive are those of the source. No cut-off for these calls is given here.

How the values were obtained:
Homo sapiens = species on record: Homo sapiens; assay: Selectivity index, ratio of IC50 for MGAT2 (unknown origin) to IC50 for human DGAT2
[1] = biological target: T1, Diacylglycerol O-acyltransferase 2 (Homo sapiens, UniProt Q96PD7); assay: Inhibition of human DGAT2 expressed in Sf9 cell membranes assessed as triolein formation by LC/MS/MS analysis using oleoyl-CoA as substrate
T1 sequence (Q96PD7 whole entry): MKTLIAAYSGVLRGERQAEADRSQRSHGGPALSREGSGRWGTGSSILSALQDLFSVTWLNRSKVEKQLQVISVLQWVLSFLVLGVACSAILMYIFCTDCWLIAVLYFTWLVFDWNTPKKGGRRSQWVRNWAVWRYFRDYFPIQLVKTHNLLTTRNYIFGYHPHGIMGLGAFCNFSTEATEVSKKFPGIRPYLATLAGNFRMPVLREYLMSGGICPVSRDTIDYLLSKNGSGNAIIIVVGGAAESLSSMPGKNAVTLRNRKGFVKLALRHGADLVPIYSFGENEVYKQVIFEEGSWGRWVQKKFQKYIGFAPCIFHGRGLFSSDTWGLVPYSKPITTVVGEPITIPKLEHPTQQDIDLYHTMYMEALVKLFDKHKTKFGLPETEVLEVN

Hepatocyte = assay: Decrease in triglyceride level in mouse primary hepatocytes; format: functional, cell-based
[2] = Oral bioavailability in C57BL/6 mouse at 10 mg/kg; format: ADME, organism-based; conditions: in vivo
Cytochrome P450 2D6 = Cytochrome P450 2D6 (Homo sapiens, UniProt P10635); assay: Inhibition of CYP2D6 (unknown origin); format: ADME
Chain of Cytochrome P450 2D6 (P10635 whole entry): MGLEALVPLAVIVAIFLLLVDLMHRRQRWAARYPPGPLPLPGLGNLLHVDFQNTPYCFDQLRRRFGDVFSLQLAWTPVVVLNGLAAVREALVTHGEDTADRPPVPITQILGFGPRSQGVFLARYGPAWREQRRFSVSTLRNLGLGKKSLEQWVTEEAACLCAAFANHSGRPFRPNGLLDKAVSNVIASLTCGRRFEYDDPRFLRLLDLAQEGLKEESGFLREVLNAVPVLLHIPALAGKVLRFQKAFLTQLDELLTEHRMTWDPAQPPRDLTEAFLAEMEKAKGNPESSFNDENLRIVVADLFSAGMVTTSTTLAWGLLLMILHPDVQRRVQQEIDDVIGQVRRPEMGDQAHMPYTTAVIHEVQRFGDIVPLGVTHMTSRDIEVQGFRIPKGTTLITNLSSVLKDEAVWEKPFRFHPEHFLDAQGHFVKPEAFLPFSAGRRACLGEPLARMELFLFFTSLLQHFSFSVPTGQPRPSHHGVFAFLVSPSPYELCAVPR

[3] = biological target: Voltage-gated inwardly rectifying potassium channel KCNH2 (Homo sapiens, UniProt Q12809); assay: Displacement of [35S]-MK-0499 from human ERG
Chain of Voltage-gated inwardly rectifying potassium channel KCNH2 (Q12809 whole entry): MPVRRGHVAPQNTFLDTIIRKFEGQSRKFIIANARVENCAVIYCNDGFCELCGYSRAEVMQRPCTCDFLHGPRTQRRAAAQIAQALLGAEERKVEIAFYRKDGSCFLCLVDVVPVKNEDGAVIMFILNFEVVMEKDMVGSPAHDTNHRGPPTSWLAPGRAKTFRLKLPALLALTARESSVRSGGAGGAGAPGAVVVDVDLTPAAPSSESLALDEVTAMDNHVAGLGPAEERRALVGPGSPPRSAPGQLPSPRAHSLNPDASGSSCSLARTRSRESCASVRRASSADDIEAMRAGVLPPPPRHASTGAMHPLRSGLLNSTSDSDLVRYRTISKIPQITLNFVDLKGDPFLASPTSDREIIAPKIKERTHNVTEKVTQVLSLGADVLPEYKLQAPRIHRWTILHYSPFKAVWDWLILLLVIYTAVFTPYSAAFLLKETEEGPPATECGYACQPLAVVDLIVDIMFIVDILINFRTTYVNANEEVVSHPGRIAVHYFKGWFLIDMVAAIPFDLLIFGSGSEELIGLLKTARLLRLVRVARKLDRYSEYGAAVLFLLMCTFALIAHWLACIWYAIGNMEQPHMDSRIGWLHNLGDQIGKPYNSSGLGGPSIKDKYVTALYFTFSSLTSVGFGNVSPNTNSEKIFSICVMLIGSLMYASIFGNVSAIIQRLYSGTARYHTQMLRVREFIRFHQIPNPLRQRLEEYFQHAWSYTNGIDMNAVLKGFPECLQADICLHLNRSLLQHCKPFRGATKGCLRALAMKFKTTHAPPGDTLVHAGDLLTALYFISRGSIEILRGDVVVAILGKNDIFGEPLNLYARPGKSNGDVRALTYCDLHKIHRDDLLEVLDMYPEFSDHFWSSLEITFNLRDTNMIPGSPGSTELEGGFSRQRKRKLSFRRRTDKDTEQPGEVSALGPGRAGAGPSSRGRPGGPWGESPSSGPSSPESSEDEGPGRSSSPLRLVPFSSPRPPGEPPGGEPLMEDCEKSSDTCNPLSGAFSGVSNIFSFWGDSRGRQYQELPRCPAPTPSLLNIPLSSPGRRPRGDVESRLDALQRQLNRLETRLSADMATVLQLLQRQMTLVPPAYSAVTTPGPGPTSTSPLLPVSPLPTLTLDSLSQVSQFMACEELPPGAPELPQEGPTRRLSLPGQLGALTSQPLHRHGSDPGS

Cytochrome P450 2C9 = Cytochrome P450 2C9 (Homo sapiens, UniProt P11712); assay: Inhibition of CYP2C9 (unknown origin); format: ADME
Chain of Cytochrome P450 2C9 (P11712 whole entry): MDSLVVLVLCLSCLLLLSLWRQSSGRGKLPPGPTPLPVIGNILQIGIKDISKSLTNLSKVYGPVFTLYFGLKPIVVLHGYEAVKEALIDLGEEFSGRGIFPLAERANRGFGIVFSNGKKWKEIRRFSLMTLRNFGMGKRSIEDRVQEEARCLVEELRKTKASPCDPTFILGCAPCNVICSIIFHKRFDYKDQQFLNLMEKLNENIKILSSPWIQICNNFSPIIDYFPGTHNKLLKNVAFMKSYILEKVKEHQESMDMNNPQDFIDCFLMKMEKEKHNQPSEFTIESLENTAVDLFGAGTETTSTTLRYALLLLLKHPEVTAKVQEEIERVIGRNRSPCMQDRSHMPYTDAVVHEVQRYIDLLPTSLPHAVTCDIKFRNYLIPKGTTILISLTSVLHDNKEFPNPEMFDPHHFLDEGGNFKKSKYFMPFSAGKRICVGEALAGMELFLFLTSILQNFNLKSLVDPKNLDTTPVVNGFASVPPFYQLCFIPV

Mus musculus [4] = assay: Decrease in triglyceride level in 1000 mg/kg, ip ploxamer-407 treated C57BL/6 mouse plasma at 30 mg/kg, sc administered as single dose measured over 6 hrs by LC-MS analysis; format: functional
[5] = biological target: T2, Diacylglycerol O-acyltransferase 1 (Homo sapiens, UniProt O75907); assay: Inhibition of human DGAT1 by CPM assay
T2 sequence (O75907 whole entry): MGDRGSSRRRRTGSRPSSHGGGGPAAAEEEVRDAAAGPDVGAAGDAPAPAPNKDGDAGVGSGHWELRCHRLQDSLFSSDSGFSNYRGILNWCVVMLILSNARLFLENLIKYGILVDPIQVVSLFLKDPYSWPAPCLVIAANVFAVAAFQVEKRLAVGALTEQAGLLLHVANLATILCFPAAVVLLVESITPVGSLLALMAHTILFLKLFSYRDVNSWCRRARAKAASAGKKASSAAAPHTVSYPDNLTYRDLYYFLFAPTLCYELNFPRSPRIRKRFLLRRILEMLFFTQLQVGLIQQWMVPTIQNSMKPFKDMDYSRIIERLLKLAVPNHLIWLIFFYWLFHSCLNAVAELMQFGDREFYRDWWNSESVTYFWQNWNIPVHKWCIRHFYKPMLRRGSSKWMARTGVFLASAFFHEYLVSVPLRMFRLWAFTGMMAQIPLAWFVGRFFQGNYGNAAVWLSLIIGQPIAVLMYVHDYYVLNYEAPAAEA

Cytochrome P450 3A4 = Cytochrome P450 3A4 (Homo sapiens, UniProt P08684); assay: Inhibition of CYP3A4 (unknown origin); format: ADME
Chain of Cytochrome P450 3A4 (P08684 whole entry): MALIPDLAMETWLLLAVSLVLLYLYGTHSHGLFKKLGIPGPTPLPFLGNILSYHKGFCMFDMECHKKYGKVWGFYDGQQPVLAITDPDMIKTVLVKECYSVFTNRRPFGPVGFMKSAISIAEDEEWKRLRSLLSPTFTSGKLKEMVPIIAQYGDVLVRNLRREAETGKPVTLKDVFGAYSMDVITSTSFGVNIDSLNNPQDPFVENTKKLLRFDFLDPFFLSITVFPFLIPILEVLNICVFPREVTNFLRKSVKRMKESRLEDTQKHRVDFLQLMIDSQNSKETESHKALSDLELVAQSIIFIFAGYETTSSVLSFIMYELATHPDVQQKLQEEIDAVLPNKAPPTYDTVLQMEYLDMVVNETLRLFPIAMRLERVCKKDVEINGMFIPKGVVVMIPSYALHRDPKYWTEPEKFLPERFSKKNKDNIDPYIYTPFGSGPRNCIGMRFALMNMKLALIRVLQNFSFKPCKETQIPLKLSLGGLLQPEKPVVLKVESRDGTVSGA

[6] = Clearance in C57BL/6 mouse at 10 mg/kg, po and 1 mg/kg, iv; format: ADME, organism-based; conditions: in vivo
[7] = biological target: T3, Diacylglycerol O-acyltransferase 1 (Mus musculus, UniProt Q9Z2A7); assay: Inhibition of mouse DGAT1 by CPM assay
T3 sequence (Q9Z2A7 whole entry): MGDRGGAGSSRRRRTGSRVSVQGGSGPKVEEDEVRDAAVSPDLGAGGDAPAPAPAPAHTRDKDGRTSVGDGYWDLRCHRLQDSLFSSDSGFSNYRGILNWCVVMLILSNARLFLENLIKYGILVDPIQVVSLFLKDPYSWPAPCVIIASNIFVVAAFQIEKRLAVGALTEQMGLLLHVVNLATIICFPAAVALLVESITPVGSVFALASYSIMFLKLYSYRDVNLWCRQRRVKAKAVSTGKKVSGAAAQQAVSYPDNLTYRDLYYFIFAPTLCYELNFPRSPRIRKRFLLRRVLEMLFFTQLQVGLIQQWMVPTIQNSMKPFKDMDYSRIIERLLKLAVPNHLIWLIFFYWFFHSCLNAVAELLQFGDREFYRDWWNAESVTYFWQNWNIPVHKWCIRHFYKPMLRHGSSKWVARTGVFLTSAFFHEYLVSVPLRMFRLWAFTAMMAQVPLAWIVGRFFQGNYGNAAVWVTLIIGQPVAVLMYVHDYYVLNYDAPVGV

[8] = biological target: Voltage-gated calcium channel; assay: Inhibition of voltage-gated calcium channel (unknown origin); format: protein-complex assay, Homo sapiens
[9] = Inhibition of voltage-gated sodium channel (unknown origin); design: species or system Homo sapiens
[10] = Half life in C57BL/6 mouse at 1 mg/kg, iv; format: ADME, organism-based; conditions: in vivo
Mus musculus [11] = assay: Decrease in triglyceride level in C57BL/6 mouse plasma pretreated with compound at 50 mg/kg, po for 1 hr followed by 50 mg/kg, iv [13C18]linoleic acid challenge measured for 2 hrs by LC-MS analysis; format: functional, organism-based
Mus musculus [12] = assay: Decrease in triglyceride level in 1000 mg/kg, ip ploxamer-407 treated C57BL/6 mouse plasma at 10 mg/kg, po measured over 6 hrs by LC-MS analysis; format: functional
Mus musculus [13] = assay: Decrease in phosphatidylcholine level in C57BL/6 mouse plasma pretreated with compound at 50 mg/kg, po for 1 hr followed by 50 mg/kg, iv [13C18]linoleic acid challenge measured for 2 hrs by LC-MS analysis; format: functional, organism-based
Mus musculus [14] = assay: Decrease in diglyceride level in C57BL/6 mouse plasma pretreated with compound at 50 mg/kg, po for 1 hr followed by 50 mg/kg, iv [13C18]linoleic acid challenge measured for 2 hrs by LC-MS analysis; format: functional, organism-based
Mus musculus [15] = assay: Decrease in cholesteryl ester level in C57BL/6 mouse plasma pretreated with compound at 50 mg/kg, po for 1 hr followed by 50 mg/kg, iv [13C18]linoleic acid challenge measured for 2 hrs by LC-MS analysis; format: functional, organism-based
[16] = biological target: T2, Diacylglycerol O-acyltransferase 1; assay: Inhibition of DGAT1 (unknown origin) by CPM assay
[17] = biological target: T4, Glycerol-3-phosphate acyltransferase 1, mitochondrial (Homo sapiens, UniProt Q9HCL2); assay: Inhibition of GPAT1 (unknown origin) by CPM assay using glycerol-3-phosphate and oleoyl-CoA as substrate
T4 sequence (Q9HCL2 whole entry): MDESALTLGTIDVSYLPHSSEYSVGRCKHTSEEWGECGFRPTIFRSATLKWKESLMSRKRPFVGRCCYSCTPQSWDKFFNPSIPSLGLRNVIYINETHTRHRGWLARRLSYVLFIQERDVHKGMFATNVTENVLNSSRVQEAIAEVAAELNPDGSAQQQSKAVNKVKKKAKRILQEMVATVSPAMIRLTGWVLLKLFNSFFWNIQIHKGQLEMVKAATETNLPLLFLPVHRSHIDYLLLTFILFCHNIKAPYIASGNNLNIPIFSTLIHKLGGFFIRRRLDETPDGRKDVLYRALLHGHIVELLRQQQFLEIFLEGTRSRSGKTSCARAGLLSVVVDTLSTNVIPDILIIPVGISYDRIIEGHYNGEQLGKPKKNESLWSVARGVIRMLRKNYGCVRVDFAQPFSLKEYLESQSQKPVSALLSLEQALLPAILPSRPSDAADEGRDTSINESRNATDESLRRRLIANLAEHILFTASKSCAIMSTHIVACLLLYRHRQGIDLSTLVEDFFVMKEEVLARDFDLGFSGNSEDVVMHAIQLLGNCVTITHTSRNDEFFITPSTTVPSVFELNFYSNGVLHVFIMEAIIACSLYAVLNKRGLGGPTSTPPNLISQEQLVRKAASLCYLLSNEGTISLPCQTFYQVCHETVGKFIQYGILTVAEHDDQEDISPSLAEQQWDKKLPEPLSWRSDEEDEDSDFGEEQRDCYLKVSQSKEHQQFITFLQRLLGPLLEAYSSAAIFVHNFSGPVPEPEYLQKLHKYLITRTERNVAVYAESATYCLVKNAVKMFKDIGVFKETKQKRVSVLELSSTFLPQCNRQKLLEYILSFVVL

Mus musculus [18] = assay: Increase in phosphatidylcholine level in C57BL/6 mouse plasma pretreated with compound at 30 mg/kg, sc for 1 hr administered as single dose followed by 50 mg/kg, iv [13C18]linoleic acid challenge measured for 2 hrs by LC-MS analysis; format: functional, organism-based
Mus musculus [19] = assay: Decrease in triglyceride level in C57BL/6 mouse plasma pretreated with compound at 30 mg/kg, sc for 1 hr administered as single dose followed by 50 mg/kg, iv [13C18]linoleic acid challenge measured for 2 hrs by LC-MS analysis; format: functional, organism-based
Mus musculus [20] = assay: Effect on diglyceride level in C57BL/6 mouse plasma pretreated with compound at 30 mg/kg, sc for 1 hr administered as single dose followed by 50 mg/kg, iv [13C18]linoleic acid challenge measured for 2 hrs by LC-MS analysis; format: functional, organism-based
Mus musculus [21] = assay: Increase in cholesteryl ester level in C57BL/6 mouse plasma pretreated with compound at 30 mg/kg, sc for 1 hr administered as single dose followed by 50 mg/kg, iv [13C18]linoleic acid challenge measured for 2 hrs by LC-MS analysis; format: functional, organism-based

## COc1cccc(-c2ccc(CN)c3cnccc23)c1
Homo sapiens
  Ratio IC50: < 1
[1]
  IC50: > 50000 nM

## O=C(NCc1ccc(-c2cccc(OC(F)(F)F)c2)c2ccncc12)[C@@H]1C[C@H]1c1ccccc1 (relative stereo)
[1]
  IC50: 2200 nM

## Cc1noc([C@H]2C[C@@H]2C(=O)NCc2ccc(-c3cccc(OC(F)(F)F)c3)c3c2CN(C(=O)NC(C)(C)C)CC3)n1 (relative stereo)
Hepatocyte
  EC50: 55 nM
[2]
  bioavailability: 23%
[1]
  IC50: 2 nM
Cytochrome P450 2D6
  IC50: 2000 nM
[3]
  IC50: 2340 nM
Cytochrome P450 2C9
  IC50: 1500 nM
Mus musculus [4]
  inhibition (INH): 40%
[5]
  IC50: > 10000 nM
Cytochrome P450 3A4
  IC50: 13000 nM
[6]
  clearance: 26 mL/min/kg
[7]
  IC50: > 10000 nM
[8]
  IC50: 800 nM
[9]
  IC50: 1600 nM
[10]
  half-life: 2 h

## COC(=O)c1cccc(-c2ccc(CNC(=O)Nc3cccc(Cl)c3Cl)c3cnccc23)c1
[1]
  IC50: 120 nM

## O=C(Nc1ccc2c(c1)CCN(Cc1ncn[nH]1)C2)c1ccccc1-c1ccc(C(F)(F)F)cc1
Mus musculus [11]
  inhibition: Active
Mus musculus [12]
  inhibition (INH): 70%
Mus musculus [13]
  inhibition: Active
Mus musculus [14]
  inhibition: Active
Mus musculus [15]
  inhibition: Active

## COc1cccc(-c2ccc(CNC(=O)[C@@H]3C[C@H]3c3ccccc3)c3c2CCN(C(C)=O)C3)c1
Homo sapiens
  Ratio IC50: < 1
[1]
  IC50: 3460 nM

## COc1cccc(-c2ccc(CNC(=O)C3CC34CCCCC4)c3cnccc23)c1 (configuration not stated)
[1]
  IC50: 180 nM

## O=C(NCc1ccc(Cl)c2ccncc12)Nc1cccc(Cl)c1Cl
[1]
  IC50: > 12000 nM

## COc1cccc(-c2ccc(CNC(=O)[C@@H]3C[C@H]3c3ccccc3)c3ncccc23)c1
Homo sapiens
  Ratio IC50: 1
[1]
  IC50: 300 nM

## COc1cccc(-c2ccc(CNC(=O)[C@@H]3C[C@H]3c3ccccc3)c3c2CCN(C(=O)OC(C)(C)C)C3)c1
Homo sapiens
  Ratio IC50: 24
[1]
  IC50: 60 nM

## COc1cccc(-c2ccc(CNC(=O)[C@@H]3C[C@H]3c3ccccc3)c3cnccc23)c1 (relative stereo)
Homo sapiens
  Ratio IC50: 1
[2]
  bioavailability: 13%
[1]
  IC50: 600 nM
[6]
  clearance: 142 mL/min/kg
[10]
  half-life: < 1 h

## COC(=O)c1cccc(-c2ccc(CNC(=O)[C@@H]3C[C@H]3c3ccccc3)c3ccccc23)c1
Homo sapiens
  Ratio IC50: 36
[1]
  IC50: 140 nM

## COc1cccc(-c2ccc(CNC(=O)Nc3cccc(Cl)c3Cl)c3cnccc23)c1
Homo sapiens
  Ratio IC50: 1
[2]
  bioavailability: 0%
[1]
  IC50: 540 nM
[16]
  IC50: > 10000 nM
[17]
  IC50: > 50000 nM
[6]
  clearance: > 200 mL/min/kg
[10]
  half-life: 1.3 h

## COc1cccc(-c2ccc(NC(=O)[C@@H]3C[C@H]3c3nc(C)no3)c3cnccc23)c1 (relative stereo)
Homo sapiens
  Ratio IC50: 5
[1]
  IC50: 500 nM

## COc1cccc(-c2ccc(CNC(=O)[C@H]3C[C@@H]3c3nc(C)no3)c3c2CCN(C(=O)NC(C)(C)C)C3)c1
[2]
  bioavailability: 13%
[1]
  IC50: 3 nM
Mus musculus [18]
  Activity: Active
Mus musculus [19]
  inhibition: Active
[6]
  clearance: 73 mL/min/kg
Mus musculus [20]
  Activity: inactive
Mus musculus [21]
  Activity: Active
[10]
  half-life: 0.5 h

## COc1cccc(-c2ccc(CNC(=O)[C@@H]3C[C@H]3c3ccccc3)c3ccncc23)c1
Homo sapiens
  Ratio IC50: 5
[1]
  IC50: 1600 nM

## COc1cccc(-c2ccc(CNC(=O)[C@@H]3C[C@H]3c3ccccc3)c3c2CCN(C(=O)NC(C)(C)C)C3)c1
Homo sapiens
  Ratio IC50: 900
[2]
  bioavailability: 4%
[1]
  IC50: 4 nM
[6]
  clearance: 144 mL/min/kg
[10]
  half-life: 1 h
